Results reported in patent publication US11492348B2, “Tri-substituted aryl and heteroaryl derivatives as modulators of PI3-kinase and autophagy pathways” (Neuropore Therapies, Inc., priority 2018, dated 2022).

target: PI3Kα (Homo sapiens (Human), UniProt P42336); test: Inhibition of PI3Kα (ADP-Glo kinase activity assay, ATP to ADP conversion); type: biochemical; details: 25 μM PIP2:PS, 60 μM ATP, 30 min reaction, luminescence
Method: Quantification of ATP to ADP conversion as a measure of PI3Kα activity. Active PI3Kα (Life Technologies), in the presence or absence of PI3Kα inhibitor, was reacted with PIP2:PS (Life Technologies), a substrate specifically optimized for use with Class I PI3 kinases, and ultrapure ATP (Promega). The conversion of ATP to ADP by PI3Kα was measured as luminescence signal via Promega ADP-Glo kinase activity assay. Assay was validated using published PI3Kα inhibitors LY294002, PI-103, BYL719, GDC0198 and also DMSO vehicle control.
Compounds were prepared at 100× final concentration as a 12-point, 1:3 serial-dilution in DMSO series, with DMSO control as 12th point. Compound was then diluted in (25 mM HEPES pH 7.5, 1 mM EGTA, 0.3% CHAPS) prior to addition to PI3Kα. Active PI3Kα diluted to 0.24 ng/μL (1.1 nM) in (50 mM HEPES pH 7.5, 6 mM MgCl2, 1 mM EGTA, 200 mM NaCl, 0.03% CHAPS, 8 mM DTT) was incubated with compound for 0 hr and 3 hr prior to the start of the reaction. 25 μM PIP2:PS and 60 μM ATP were diluted from stock in (25 mM HEPES pH 7.5, 1 mM EGTA, 0.3% CHAPS) and added to initiate the PI3Kα reaction. Reaction time was 30 minutes. ATP to ADP conversion was measured in Luminescence Counts on DTX880 Plate Reader (Beckman Coulter). Compound IC50s were reported using GraphPad Prism software. Analytical method was non-linear regression, 4-parameter curve fit with bottom fit to validated PI3Kα inhibitor reference controls and no top fit (floating top).

Sequence of PI3Kα (P42336 whole entry): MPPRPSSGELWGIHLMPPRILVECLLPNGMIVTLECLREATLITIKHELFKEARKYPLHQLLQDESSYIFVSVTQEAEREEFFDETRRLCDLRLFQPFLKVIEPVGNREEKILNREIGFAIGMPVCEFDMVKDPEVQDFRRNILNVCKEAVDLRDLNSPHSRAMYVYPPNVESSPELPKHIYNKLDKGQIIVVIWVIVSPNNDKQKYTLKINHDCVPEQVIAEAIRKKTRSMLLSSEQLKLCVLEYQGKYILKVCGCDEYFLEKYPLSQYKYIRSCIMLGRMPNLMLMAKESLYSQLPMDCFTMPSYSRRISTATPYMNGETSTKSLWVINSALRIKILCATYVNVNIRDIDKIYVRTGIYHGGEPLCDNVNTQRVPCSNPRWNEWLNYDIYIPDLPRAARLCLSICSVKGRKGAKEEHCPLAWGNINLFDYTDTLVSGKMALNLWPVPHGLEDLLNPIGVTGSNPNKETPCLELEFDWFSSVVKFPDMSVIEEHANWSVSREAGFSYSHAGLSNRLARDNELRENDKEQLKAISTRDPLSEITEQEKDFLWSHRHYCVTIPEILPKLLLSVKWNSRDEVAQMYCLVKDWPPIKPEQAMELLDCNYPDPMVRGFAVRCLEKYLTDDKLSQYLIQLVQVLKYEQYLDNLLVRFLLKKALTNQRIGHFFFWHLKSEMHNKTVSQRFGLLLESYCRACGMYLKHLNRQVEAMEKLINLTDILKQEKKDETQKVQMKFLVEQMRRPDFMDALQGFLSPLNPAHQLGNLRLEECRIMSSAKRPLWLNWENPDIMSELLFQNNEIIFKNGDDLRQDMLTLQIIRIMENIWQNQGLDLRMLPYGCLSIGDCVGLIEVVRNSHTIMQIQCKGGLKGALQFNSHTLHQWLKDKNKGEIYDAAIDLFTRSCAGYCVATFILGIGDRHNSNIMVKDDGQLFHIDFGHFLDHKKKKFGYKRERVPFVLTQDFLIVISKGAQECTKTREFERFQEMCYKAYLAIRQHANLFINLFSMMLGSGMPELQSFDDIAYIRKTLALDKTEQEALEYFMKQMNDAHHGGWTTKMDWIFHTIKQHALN
Sequence of PI3Kα (P27986 whole entry partner): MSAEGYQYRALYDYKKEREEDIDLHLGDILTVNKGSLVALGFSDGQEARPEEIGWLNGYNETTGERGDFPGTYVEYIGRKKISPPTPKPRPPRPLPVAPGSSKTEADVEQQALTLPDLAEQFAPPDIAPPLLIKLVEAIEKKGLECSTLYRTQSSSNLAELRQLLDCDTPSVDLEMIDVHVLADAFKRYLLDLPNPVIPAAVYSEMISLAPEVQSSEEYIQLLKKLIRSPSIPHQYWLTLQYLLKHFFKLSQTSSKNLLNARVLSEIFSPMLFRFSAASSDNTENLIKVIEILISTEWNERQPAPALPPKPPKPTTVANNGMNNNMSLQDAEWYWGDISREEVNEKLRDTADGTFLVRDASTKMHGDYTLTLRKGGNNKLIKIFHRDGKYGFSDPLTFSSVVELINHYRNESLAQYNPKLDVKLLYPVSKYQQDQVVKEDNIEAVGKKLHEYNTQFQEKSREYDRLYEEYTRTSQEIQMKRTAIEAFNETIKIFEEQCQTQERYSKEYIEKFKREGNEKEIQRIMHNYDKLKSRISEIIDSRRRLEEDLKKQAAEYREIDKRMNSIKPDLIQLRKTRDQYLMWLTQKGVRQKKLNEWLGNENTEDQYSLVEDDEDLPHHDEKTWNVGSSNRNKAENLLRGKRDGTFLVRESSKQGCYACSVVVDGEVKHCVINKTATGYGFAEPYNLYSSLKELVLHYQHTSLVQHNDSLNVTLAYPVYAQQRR

| SMILES | PI3Ka IC50 [µM] |
| --- | --- |
| Nc1ncc(-c2cc(N3CCOCC3)cc(S(=O)(=O)C3CN(C4CCOCC4)C3)c2)cn1 [Compound 66, 5-(3-morpholino-5-((1-(tetrahydro-2H-pyran-4-yl)azetidin-3-yl)sulfonyl)phenyl)pyrimidin-2-amine] | 1.3 |
| CC1CN(c2cc(S(=O)(=O)c3ccccc3)cc(-c3cnc(N)nc3)n2)CC(C)O1 (stereo not drawn) [Compound 150, 5-(6-(2,6-dimethylmorpholino)-4-(phenylsulfonyl)pyridin-2-yl)pyrimidin-2-amine] | 0.45 |
| C[C@@H]1CC(S(=O)(=O)c2cc(-c3cnc(N)nc3)cc(N3CCOCC3)c2)C[C@H](C)O1 (stereo partly drawn) [Compound 85, 5-(3-(((2R,6S)-2,6-dimethyltetrahydro-2H-pyran-4-yl)sulfonyl)-5-morpholinophenyl)pyrimidin-2-amine] | 1.0 |
| CC(C)N1CCC(S(=O)(=O)c2cc(-c3cnc(N)nc3)cc(N3CCOCC3)c2)CC1 [Compound 90, 5-(3-((1-isopropylpiperidin-4-yl)sulfonyl)-5-morpholinophenyl)pyrimidin-2-amine] | 7.22 |
| CN(C)c1ncc(-c2cc(N3CCOCC3)cc(S(=O)(=O)c3ccccc3)c2)cn1 [Compound 4, N,N-dimethyl-5-(3-morpholino-5-(phenylsulfonyl)phenyl)pyrimidin-2-amine] | 11 |
| Nc1cc(C(F)(F)F)c(-c2cc(N3CCOCC3)cc(S(=O)(=O)c3ccccc3)c2)cn1 [Compound 6, 5-(3-morpholino-5-(phenylsulfonyl)phenyl)-4-(trifluoromethyl)pyridin-2-amine] | 3.8 |
| CC(=O)Nc1ncc(-c2cc(S(=O)(=O)c3ccccc3)cc(N3CCOCC3)n2)cn1 [Compound 145, N-(5-(6-morpholino-4-(phenylsulfonyl)pyridin-2-yl)pyrimidin-2-yl)acetamide] | 0.39 |
| Nc1ncc(-c2cc(N3CCOCC3)cc(S(=O)(=O)CC3CCC(F)(F)CC3)c2)cn1 [Compound 64, 5-(3-(((4,4-difluorocyclohexyl)methyl)sulfonyl)-5-C21H26F2N4O3Smorpholinophenyl) pyrimidin-2-amine] | 1.1 |
| COc1ncc(-c2cc(N3CCOCC3)cc(S(=O)(=O)c3ccccc3)c2)cn1 [Compound 2, 4-(3-(2-methoxypyrimidin-5-yl)-5-(phenylsulfonyl)phenyl)morpholine] | 5.0 |
| CC(C)(C)OC(=O)N1CC(S(=O)(=O)c2cc(-c3cnc(N)cn3)cc(N3CCOCC3)c2)C1 [Compound 69, tert-butyl 3-((3-(5-aminopyrazin-2-yl)-5-morpholinophenyl)sulfonyl)azetidine-1-carboxylate] | 0.54 |
| Nc1ncc(-c2cc(S(=O)(=O)[C@@H]3CCOC3)cc(N3CCOCC3)n2)cn1 [Compound 142b, (R)-5-(6-morpholino-4-((tetrahydrofuran-3-yl)sulfonyl)pyridin-2-yl)pyrimidin-2-amine] | 0.0068 |
| Nc1ncc(-c2cc(C(=O)C3CCOC3)cc(N3CCOCC3)n2)cn1 (stereo not drawn) [Compound 149, (2-(2-aminopyrimidin-5-yl)-6-morpholinopyridin-4-yl)(tetrahydrofuran-3-yl)methanone] | 0.0140 |
| CC(C)(C)OC(=O)N1CCC(N2CC(S(=O)(=O)c3cc(-c4cnc(N)nc4)cc(N4CCOCC4)c3)C2)CC1 [Compound 67, tert-butyl 4-(3-((3-(2-aminopyrimidin-5-yl)-5-morpholinophenyl)sulfonyl)azetidin-1-yl)piperidine-1-carboxylate] | 0.80 |
| Nc1ccc(-c2cc(N3CCOCC3)cc(S(=O)(=O)[C@@H]3CCOC3)c2)c(C(F)(F)F)n1 [Compound 105, (R)-5-(3-morpholino-5-((tetrahydrofuran-3-yl)sulfonyl)phenyl)-6-(trifluoromethyl)pyridin-2-amine] | 1.7 |
| Nc1cnc(-c2cc(N3CCOCC3)cc(S(=O)(=O)C3CCOC3)c2)cn1 (stereo not drawn) [Compound 74, 5-(3-morpholino-5-((tetrahydrofuran-3-yl)sulfonyl)phenyl)pyrazin-2-amine] | 1.0 |
| CC(C)N1CCC(S(=O)(=O)c2cc(-c3cnc(N)nc3)cc(N3CCOCC3)c2)C1.Cl (stereo not drawn) [Compound 89, 5-(3-((1-isopropylpyrrolidin-3-yl)sulfonyl)-5-morpholinophenyl)pyrimidin-2-amine hydrochloride] | 2.5 |
| Nc1ncc(-c2cc(S(=O)(=O)C3CCOc4ccccc43)cc(N3CCOCC3)n2)cn1 (racemic) [Compound 143, 5-(4-(chroman-4-ylsulfonyl)-6-morpholinopyridin-2-yl)pyrimidin-2-amine] | 0.0017 |
| CC(C)(C)OC(=O)N1CCN(c2cc(-c3cnc(N)nc3)cc(S(=O)(=O)c3ccccc3)c2)CC1 [Compound 24, tert-butyl 4-(3-(2-aminopyrimidin-5-yl)-5-(phenylsulfonyl)phenyl)piperazine-1-carboxylate] | 21 |
| Cc1nc(N)ncc1-c1cc(N2CCOCC2)cc(S(=O)(=O)[C@@H]2CCOC2)c1 [Compound 121, (R)-4-methyl-5-(3-morpholino-5-((tetrahydrofuran-3-yl)sulfonyl)phenyl)pyrimidin-2-amine] | 0.84 |

More lines, now with the values ahead:

| PI3Ka IC50 [µM] | SMILES |
| --- | --- |
| 0.50 | Nc1ncc(-c2cc(N3CCOCC3)cc(S(=O)(=O)C3CNC3)c2)cn1 [Compound 61, 5-(3-(azetidin-3-ylsulfonyl)-5-morpholinophenyl)pyrimidin-2-amine] |
| 11 | COc1ccc(-c2cc(N3CCOCC3)cc(S(=O)(=O)Cc3ccc(F)cc3)c2)cc1N [Compound 43, 3′-((4-fluorobenzyl)sulfonyl)-4-methoxy-5′-morpholino-[1,1′-biphenyl]-3-amine] |
| 1.5 | Nc1cnc(-c2cc(N3CCOCC3)cc(S(=O)(=O)Cc3ccccc3)c2)cn1 [Compound 73, 5-(3-(benzylsulfonyl)-5-morpholinophenyl)pyrazin-2-amine] |
| 1.1 | Nc1ncc(-c2cc(N3CCOCC3)cc(S(=O)(=O)c3ccc(N4CCOCC4)cc3)c2)cn1 [Compound 36, 5-(3-morpholino-5-((4-morpholinophenyl)sulfonyl)phenyl)pyrimidin-2-amine] |
| 2.0 | CC(C)(O)CNc1ccc(S(=O)(=O)c2cc(-c3cnc(N)nc3)cc(N3CCOCC3)c2)cc1 [Compound 37, 1-((4-((3-(2-aminopyrimidin-5-yl)-5-morpholinophenyl)sulfonyl)phenyl)amino)-2-methylpropan-2-ol] |
| 13 | COc1nc(N)ccc1-c1cc(N2CCOCC2)cc(S(=O)(=O)Cc2ccc(F)cc2)c1 [Compound 44, 5-(3-((4-fluorobenzyl)sulfonyl)-5-morpholinophenyl)-6-methoxypyridin-2-amine] |
| 0.60 | CC(C)(O)CNc1ccc(CS(=O)(=O)c2cc(-c3cnc(N)nc3)cc(N3CCOCC3)c2)cc1 [Compound 84, 1-((4-(((3-(2-aminopyrimidin-5-yl)-5-morpholinophenyl)sulfonyl)methyl)phenyl)amino)-2-methylpropan-2-ol] |
| 13 | Cc1cn2cc(-c3cc(N4CCOCC4)cc(S(=O)(=O)Cc4ccccc4)c3)cnc2n1 [Compound 34, 4-(3-(benzylsulfonyl)-5-(2-methylimidazo[1,2-a]pyrimidin-6-yl)phenyl)morpholine] |
| 1.5 | Nc1ncc(-c2cc(N3CCOCC3)cc(S(=O)(=O)c3ccc4ccccc4c3)c2)cn1 [Compound 9, 5-(3-morpholino-5-(naphthalen-2-ylsulfonyl)phenyl)pyrimidin-2-amine] |
| 12 | Nc1ccc(-c2cc(N3CCOCC3)cc(S(=O)(=O)Cc3ccc(F)cc3F)c2)nc1 [Compound 98, -(3-((2,4-difluorobenzyl)sulfonyl)-5-morpholinophenyl)pyridin-3-amine] |
| 0.66 | Nc1ncc(-c2cc(N3CCOCC3)cc(S(=O)(=O)C3CN(Cc4ccc(F)cc4)C3)c2)cn1 [Compound 80, 5-(3-((1-(4-fluorobenzyl)azetidin-3-yl)sulfonyl)-5-morpholinophenyl)pyrimidin-2-amine] |
| 0.87 | CC(C)N1CC(S(=O)(=O)c2cc(-c3cnc(N)nc3)cc(N3CCOCC3)c2)C1 [Compound 65, 5-(3-((1-isopropylazetidin-3-yl)sulfonyl)-5-morpholinophenyl)pyrimidin-2-amine] |
| 7.3 | Nc1ncc(-c2cc(N3CCOCC3)cc(S(=O)(=O)c3ccc(C(F)(F)F)cc3)c2)cn1 [Compound 14, 5-(3-morpholino-5-((4-(trifluoromethyl)phenyl)sulfonyl)phenyl) pyrimidin-2-amine] |

same assay, conditions: 25 μM PIP2:PS, 60 μM ATP, 30 min reaction, luminescence; read-out: PI3Ka IC50

| IC50 [µM] | SMILES |
| --- | --- |
| 0.001 | Nc1ncc(-c2cc(S(=O)(=O)C3CCOc4ccccc43)cc(N3CCOCC3)n2)cn1 (single isomer, unassigned; (-)) [(−) 143, 5-(4-(chroman-4-ylsulfonyl)-6-morpholinopyridin-2-yl)pyrimidin-2-amine] |
